Measured values from patent publication US20100248272A1, “Method for identifying Smk box riboswitch modulating compounds” (Cornell University, priority 2009, published 2010).
“And” between values parts separate entries of the source, which are not always exact repeats. Equal values may be shown once. “Also recorded” adds a separate entry of the source.

Columns and labels:
SMK box riboswitch = assay: Competition binding assay SAM versus SAH; design: species or system E. faecalis; conditions: >100-fold excess of SAH over SAM
Excerpt: FIGS. 6A, 6B. Effects of SMK box riboswitch mutagenesis on SAM binding and apparent SAM binding constant (Ka) determination. (A) Effects of mutation (with s.d.) on SAM binding by size-exclusion filtration assay, as described. (B) SAM and SAH Kd determination by competition binding assay.
(§1) The Kd value for the full-length SMK transcript was further confirmed by fluorescence-quenching assays, as described below and shown in FIG. 11.

[1] = tested on: wild-type 15-118 metK leader RNA (bipartite, 2-AP at A29); assay: Kd measurement by 2-AP fluorescence quenching; assay type: binding, E. faecalis; conditions: for quenching of 2-AP fluorescence: wild-type RNA
Protocol: (§2) FIG. 11. […] Increasing concentrations of SAM were added to bipartite metK leader RNA containing an internal 2-AP modification at residue A29. 2-AP fluorescence at steady-state was measured at 375 nm with an excitation wavelength of 310 nm. […] Percent quenching (ΔF/F0×100) represents the change in fluorescence normalized to the initial fluorescence observed in the absence of SAM.
(§3) For this, a bipartite RNA comprised of two half RNAs was used, which corresponds to positions 15-46 and 47-118. The two RNA halves are predicted to anneal through extensive base pairing in the P1-P3 helices to form the full-length metK leader RNA corresponding to positions 15-118, with a nick immediately upstream of residue G47 at the top of the P3 stein loop.
(§4) A 2-aminopurine (2-AP) modification was incorporated into the upstream RNA at residue A29 to monitor local conformational changes occurring at this position in response to SAM binding using florescence spectroscopy.

[2] = tested on: E. faecalis metK-lacZ fusion A93C
Protocol: (§5) In this experiment, in vivo lacZ reporter gene assays were conducted as previously described (R. T. Fuchs, et al., 2006, Ibid. and R. T. Fuchs, et al., 2007, Ibid.). Enterococcus faecalis metK leader region constructs, which included the first 15 nt of the coding region, were positioned downstream of the highly expressed B. subtilis glyQS promoter. The resulting DNA fragment was inserted into a lacZ fusion vector (pFG328) to generate an in-frame metK-lacZ translational fusion in which the first five codons of metK were fused to codon 18 of lacZ. The constructs were introduced into the chromosome of B. subtilis strain BR151 (metB10 lys-3trpC2) by integration into an SPβ prophage. Bacillus subtilis strains containing the lacZ fusions were grown at 37° C. in Spizizen minimal medium containing methionine ([…]) until early exponential growth. The cells were harvested by centrifugation at 8,000 g and resuspended in Spizizen medium either with or without methionine, and samples were collected at 1-h intervals and assayed for β-galactosidase activity after toluene permeabilization of the cells.

[3] = tested on: E. faecalis metK-lacZ fusion C24G
Protocol: as §5

[4] = tested on: E. faecalis metK-lacZ fusion C24U + G91A
Protocol: as §5

[5] = tested on: E. faecalis metK-lacZ fusion C24U
Protocol: as §5

[6] = tested on: E. faecalis metK-lacZ fusion C25U + G90A
Protocol: as §5

[7] = tested on: E. faecalis metK-lacZ fusion C25U
Protocol: as §5

[8] = tested on: E. faecalis metK-lacZ fusion U22G + A93C
Protocol: as §5

[9] = tested on: E. faecalis metK-lacZ fusion U22G
Protocol: as §5

[10] = tested on: E. faecalis metK-lacZ fusion WT
Protocol: as §5

[11] = tested on: E. faecalis metK-lacZ fusion WT; conditions: cells grown in the presence of high methionine concentrations; previously shown; cited from earlier work
[12] = target: full-length E. faecalis metK RNA (wild-type 15-118 metK leader sequence); assay: Apparent Kd determination by size-exclusion filtration (modified SAM binding assay); conditions: full-length transcript, positions 15-118; [3H]-SAM
Protocol: (§6) The apparent equilibrium dissociation constants (Kd values) for the wild-type 15-118 metK leader sequence and the 53-nucleotide crystallization construct were determined using a modified SAM binding assay (J. Tomsic, et al., J. Bacteriol., 190, 823-833 (2007)). Briefly, T7 RNA polymerase transcribed RNA (1 μM) in 1× transcription buffer was refolded as described above and incubated with [^3H]-SAM ranging in concentration from 0.02 to 10 μM. Binding reactions were loaded onto Nanosep 3K Omega filters (Pall Life Sciences) and centrifuged briefly at 14,000 g to avoid large volume changes. The concentration of the RNA-[^3H]-SAM complex retained by the filter and the unbound SAM present in the flow through were determined by scintillation counting of known volumes, and nonlinear regression analyses were performed using Kaleida-Graph Version 3.51 (Synergy Software). Apparent Kd values represent the averages of at least two independent experiments for each construct with a margin of error≦5%.
as §1

[13] = target: SMK6 crystallization construct (53-nucleotide SMK box riboswitch); assay: as above; design: species or system E. faecalis; conditions: 53-nt crystallization construct SMK6; [3H]-SAM
Protocol: as §6, §1

[14] = tested on: U72C mutant metK leader RNA; assay: 2-AP fluorescence quenching; assay type: binding, E. faecalis; conditions: SAM concentrations up to 100 μM
Protocol: as §2, §3, §4

[15] = tested on: E. faecalis SMK box A73G mutant RNA; assay: In vitro SAM binding assay (size-exclusion filtration); conditions: A73G mutation
Excerpt: (§7) DNA templates corresponding to positions 15-118 (relative to the predicted transcription start site) of the E. faecalis metK leader were constructed by ligating overlapping pairs of complementary oligonucleotides, including a T7 RNA polymerase promoter sequence, as previously described (M. R. Yousef, et al., RNA, 9, 1148-1156 (2003) and B. A., McDaniel, et al., Mol. Microbiol., 57, 1008-1021 (2005)). Ligated products were amplified by PCR and RNAs were synthesized by T7 RNA polymerase transcription using an AmpliScribe T7 High Yield Transcription Kit (Epicentre Biotechnologies). RNAs (3 μM) in 1× transcription buffer (F. J. Grundy, et al., Nucleic Acids Res., 30, 1646-1655 (2002)) were heated to 65° C. for 5 minutes and slow-cooled to 40° C., followed by addition of radiolabeled SAM (3 μM [methyl-3H]-SAM, 15 Ci mmol^−1; GE Healthcare) in a total reaction volume of 40 μL, Binding reactions were incubated at room temperature (20-25° C.) for 15 minutes followed by passage through a Nanosep 10K Omega filter (Pall Life Sciences) by centrifugation at 14,000 g for 2.5 minutes. Filters were washed four times with 40 μL 1× transcription buffer to remove unbound SAM, and material retained by the filter was collected, mixed with Packard BioScience Ultima Gold scintillation fluid, and counted in a Packard Tri-Carb 2100TR liquid scintillation counter. No SAM was retained by the filter in the absence of RNA.

[16] = tested on: E. faecalis SMK box C24G mutant RNA; assay: as above; conditions: C24G mutation
Excerpt: as §7

[17] = tested on: E. faecalis SMK box C24U G91A double mutant RNA; assay: as above; conditions: C24U G91A double mutation
Excerpt: as §7

[18] = tested on: E. faecalis SMK box C25U G90A double mutant RNA; assay: as above; conditions: C25U G90A double mutation
Excerpt: as §7

[19] = tested on: E. faecalis SMK box C25U mutant RNA; assay: as above
Excerpt: as §7

[20] = tested on: E. faecalis SMK box C76U G88A mutant RNA; assay: as above; conditions: C76U and G88A combined
Excerpt: as §7

[21] = tested on: E. faecalis SMK box C76U mutant RNA; assay: as above; conditions: C76U wobble mutation
Excerpt: as §7

[22] = tested on: E. faecalis SMK box G26A mutant RNA; assay: as above
Excerpt: as §7

[23] = tested on: E. faecalis SMK box G88A mutant RNA; assay: as above; conditions: G88A mismatch mutation
Excerpt: as §7

[24] = tested on: E. faecalis SMK box G90A mutant RNA; assay: as above; conditions: G90A mutation (C25•A90 mismatch)
Excerpt: as §7

[25] = tested on: E. faecalis SMK box RNA with linker region replaced by poly(A)6; assay: as above; conditions: 11-nt linker replaced with poly(A)6
Excerpt: as §7

[26] = tested on: E. faecalis SMK box RNA with poly(A)6 linker and G88 and G89 mutated to adenosine; assay: as above; conditions: poly(A)6 linker plus G88 and G89 to adenosine
Excerpt: as §7

[27] = tested on: E. faecalis SMK box U65 deletion mutant RNA; assay: as above
Excerpt: as §7

[28] = tested on: E. faecalis SMK box U65C mutant RNA; assay: as above; conditions: U65C mutation
Excerpt: as §7

[29] = tested on: E. faecalis SMK box U72C mutant RNA; assay: as above
Excerpt: as §7

[30] = tested on: 30S ribosomal subunit on the SMK box mRNA; assay: Ribosome toeprinting analysis; assay type: biochemical; conditions: in the presence of ligand
[31] = tested on: E. faecalis SMK box U22G mutant RNA; conditions: U22G mutation; cited from earlier work
[32] = tested on: E. faecalis SMK box A93C mutant RNA; conditions: A93C mutation; cited from earlier work
[33] = tested on: E. faecalis SMK box U22G A93C double mutant RNA; conditions: cited from earlier work
[34] = Spizizen medium with methionine

In the case of `Nc1ncnc2c1ncn2[C@@H]1O[C@H](CSCC[C@H](N)C(=O)O)[C@@H](O)[C@H]1O` [SAH, S-adenosyl-L-homocysteine], the “competition by unlabeled SAH” value (SMK box riboswitch) is reported as “no competition” and the “quenching of 2-AP fluorescence” value [1] is reported as “not observed”.

For `CSCC[C@H](N)C(=O)O` [Met, methionine], the “Ratio (−Met/+Met)” value [2] was 1.8, the “Expression of metK-lacZ fusion, +Met (β-galactosidase activity)” value (“Expression of metK-lacZ fusion, +Met” for short) [2, 34] was 42 +/− 1.0 and the “Ratio (−Met/+Met)” value [3] was 1.2. For the same molecule, the “Expression of metK-lacZ fusion, +Met” value [3, 34] was 95 +/− 6.1, the “Ratio (−Met/+Met)” value [4] was 1.5 and the “Expression of metK-lacZ fusion, +Met” value [4, 34] was 15 +/− 2.9. For the same molecule, the “Ratio (−Met/+Met)” value [5] was 1.6, the “Expression of metK-lacZ fusion, +Met” value [5, 34] was 200 +/− 22 and the “Ratio (−Met/+Met)” value [6] was 0.95. For the same molecule, the “Expression of metK-lacZ fusion, +Met” value [6, 34] was 82 +/− 16, the “Ratio (−Met/+Met)” value [7] was 2.8 and the “Expression of metK-lacZ fusion, +Met” value [7, 34] was 80 +/− 5.0. The “Ratio (−Met/+Met)” value [8] was 4.4, the “Expression of metK-lacZ fusion, +Met” value [8, 34] was 2.5 +/− 0.72 and the “Ratio (−Met/+Met)” value [9] was 1.4. For the same molecule, the “Expression of metK-lacZ fusion, +Met” value [9, 34] was 160 +/− 13, the “Ratio (−Met/+Met)” value [10] was 5.0 and the “Expression of metK-lacZ fusion, +Met” value [10, 34] was 24 +/− 5.5. For the same molecule, the “reduction in expression of lacZ reporter” value [11] was “five”.

In the case of `C[S+](CC[C@H](N)C(=O)[O-])C[C@H]1O[C@@H](n2cnc3c(N)ncnc32)[C@H](O)[C@@H]1O` (some centres unmarked) [SAM, S-adenosyl methionine], the Kd [12] is reported as 850 nM, the Kd [13] is reported as 570 nM and the Kd ([1]; 2-AP fluorescence, excitation 310 nm, emission 375 nm, read-out: apparent Kd) is reported as 1030 nM and 1000 nM. The “quenching of 2-AP fluorescence” value [1] was “concentration-dependent quenching”, the “quenching of 2-AP fluorescence” value [14] was “No quenching; also recorded: no substantial change in fluorescence” and the “reduction in SAM binding activity” value [15] was 80 fold. The “SAM binding” value [16] was “loss of SAM binding”, the “SAM binding” value [17] was “restored SAM binding” and the “SAM binding activity” value [18] was “loss of SAM binding activity”. For the same molecule, the SAM binding activity ([19]; C25U mutation (U25-G90 wobble pair)) was 63%, the “SAM binding in vitro” value ([19]; C25U substitution) was “modest reduction” and the “SAM binding, of the wild-type level” value [20] was 32%. For the same molecule, the “SAM binding activity retained” value [21] was 59%, the “reduction of SAM binding” value [22] was “five” and the “reduction in SAM binding activity” value [23] was 75 fold. For the same molecule, the “SAM binding activity, of the wild type” value [24] was 1.3%, the “SAM binding activity” value [25] was “did not affect” and the “SAM binding” value [26] was “dramatically reduced”. For the same molecule, the “decrease in SAM binding activity” value [27] was 20 fold, the “decrease in SAM binding activity” value [28] was 5 fold and the “SAM binding in the filtration assay” value ([29]; U72C RNA) was “loss of SAM binding”. The “decrease in SAM binding activity” value ([29]; U72C mutation) was 70 fold, the “correct positioning of the 30S ribosomal subunit on the SMK box mRNA” value [30] was “reduced” and the “SAM binding in vitro” value [31] was “loss of SAM binding”. For the same molecule, the “SAM binding in vitro” value [32] was “loss of SAM binding” and the “SAM binding” value [33] was “restores SAM binding”.
